{"source": "paper PMC5218480", "about": "(PLoS ONE, 2017)", "tested_on": "MV-4-11 cells", "experiment": "Gene expression microarray analysis (Affymetrix PrimeView) and GSEA", "assay_type": "cell-based, human", "parameters": "RFU PODN (11730768_x_at) / Fold change /veh PODN (11730768_x_at) / RFU LINC00158 (11744669_a_at) / Fold change /veh LINC00158 (11744669_a_at) / RFU DUSP10 (11751237_a_at) / Fold change /veh DUSP10 (11751237_a_at) / RFU ID3 (11757404_x_at) / Fold change /veh ID3 (11757404_x_at) / RFU PLEKHG5 (11737974_s_at) / Fold change /veh PLEKHG5 (11737974_s_at) / RFU LRRC4B (11730491_at) / Fold change /veh LRRC4B (11730491_at) / RFU GIMAP4 (11747438_a_at) / Fold change /veh GIMAP4 (11747438_a_at) / RFU KRT8 (11758183_x_at) / Fold change /veh KRT8 (11758183_x_at) / RFU CNN1 (11734310_a_at) / Fold change /veh CNN1 (11734310_a_at) / RFU VPS37D (11726825_at) / Fold change /veh VPS37D (11726825_at) / RFU C10orf10 (11716522_x_at) / Fold change /veh C10orf10 (11716522_x_at) / RFU KIR2DL2 /// KIR2DL4 /// KIR2DL5A /// KIR2DL5B /// KIR2DS1 /// KIR2DS2 /// KIR2DS3 /// KIR2DS4 /// KIR3DL3 /// KIR3DL3 /// KIR3DS1 (11738374_at) / Fold change /veh KIR2DL2 /// KIR2DL4 /// KIR2DL5A /// KIR2DL5B /// KIR2DS1 /// KIR2DS2 /// KIR2DS3 /// KIR2DS4 /// KIR3DL3 /// KIR3DL3 /// KIR3DS1 (11738374_at) / RFU C1QL1 (11718748_at) / Fold change /veh C1QL1 (11718748_at) / RFU TMPRSS4 (11747572_a_at) / Fold change /veh TMPRSS4 (11747572_a_at) / RFU HAMP (11756126_x_at) / Fold change /veh HAMP (11756126_x_at) / RFU RNFT2 (11725882_a_at) / Fold change /veh RNFT2 (11725882_a_at) / RFU NR4A2 (11747474_a_at) / Fold change /veh NR4A2 (11747474_a_at) / RFU ABCC12 (11746883_a_at) / Fold change /veh ABCC12 (11746883_a_at) / RFU TMEM136 (11760407_x_at) / Fold change /veh TMEM136 (11760407_x_at) / RFU CLDN22 /// WWC2 (11732394_at) / Fold change /veh CLDN22 /// WWC2 (11732394_at) / RFU HLA-DPB1 (11760878_x_at) / Fold change /veh HLA-DPB1 (11760878_x_at) / RFU SPINT1 (11716480_a_at) / Fold change /veh SPINT1 (11716480_a_at) / RFU GAP43 (11754022_s_at) / Fold change /veh GAP43 (11754022_s_at) / RFU A4GNT (11735810_at) / Fold change /veh A4GNT (11735810_at) / RFU PRB3 (11715151_x_at) / Fold change /veh PRB3 (11715151_x_at) / RFU TUBB4B (11761932_at) / Fold change /veh TUBB4B (11761932_at) / RFU CAPN14 (11732068_a_at) / Fold change /veh CAPN14 (11732068_a_at) / RFU TMCC2 (11721928_a_at) / Fold change /veh TMCC2 (11721928_a_at) / RFU IRGQ (11745062_a_at) / Fold change /veh IRGQ (11745062_a_at) / RFU FAM174B (11720279_a_at) / Fold change /veh FAM174B (11720279_a_at) / RFU TMPRSS4 (11748680_a_at) / Fold change /veh TMPRSS4 (11748680_a_at) / RFU FAM212B (11763350_a_at) / Fold change /veh FAM212B (11763350_a_at) / RFU PLEKHG5 (11743358_a_at) / Fold change /veh PLEKHG5 (11743358_a_at) / RFU ZSCAN30 (11745921_a_at) / Fold change /veh ZSCAN30 (11745921_a_at) / RFU CMKLR1 (11741424_a_at) / Fold change /veh CMKLR1 (11741424_a_at) / RFU LOC101060620 /// MAPK8IP1 (11723275_at) / Fold change /veh LOC101060620 /// MAPK8IP1 (11723275_at) / RFU SPTSSB (11747773_x_at) / Fold change /veh SPTSSB (11747773_x_at) / RFU PRSS12 (11739890_at) / Fold change /veh PRSS12 (11739890_at) / RFU BIN1 (11741810_x_at) / Fold change /veh BIN1 (11741810_x_at) / RFU WNT11 (11732464_a_at) / Fold change /veh WNT11 (11732464_a_at) / RFU C10orf10 (11716521_a_at) / Fold change /veh C10orf10 (11716521_a_at) / RFU C5orf56 (11738089_at) / Fold change /veh C5orf56 (11738089_at) / RFU CYB561 (11721691_x_at) / Fold change /veh CYB561 (11721691_x_at) / RFU ANKRD19P (11752326_a_at) / Fold change /veh ANKRD19P (11752326_a_at) / RFU OR2T12 /// OR2T33 /// OR2T8 (11738714_s_at) / Fold change /veh OR2T12 /// OR2T33 /// OR2T8 (11738714_s_at) / RFU VCAN (11748164_a_at) / Fold change /veh VCAN (11748164_a_at) / RFU JSRP1 (11732532_at) / Fold change /veh JSRP1 (11732532_at) / RFU KRTAP10-11 (11738290_x_at) / Fold change /veh KRTAP10-11 (11738290_x_at) / RFU MYO3A (11730013_a_at) / Fold change /veh MYO3A (11730013_a_at) / RFU EBF3 (11725865_a_at) / Fold change /veh EBF3 (11725865_a_at) / RFU CAMK2N1 (11719241_x_at) / Fold change /veh CAMK2N1 (11719241_x_at) / RFU C5orf56 (11738088_a_at) / Fold change /veh C5orf56 (11738088_a_at) / RFU OLFML3 (11715873_a_at) / Fold change /veh OLFML3 (11715873_a_at) / RFU LOC100653217 /// NTM (11731650_a_at) / Fold change /veh LOC100653217 /// NTM (11731650_a_at) / RFU MAPK11 (11762145_a_at) / Fold change /veh MAPK11 (11762145_a_at) / RFU FIZ1 (11724087_x_at) / Fold change /veh FIZ1 (11724087_x_at) / RFU OASL (11726364_x_at) / Fold change /veh OASL (11726364_x_at) / RFU SOX15 (11748057_x_at) / Fold change /veh SOX15 (11748057_x_at) / RFU CD79A (11719716_a_at) / Fold change /veh CD79A (11719716_a_at) / RFU HIST1H1D (11736915_at) / Fold change /veh HIST1H1D (11736915_at) / RFU CASKIN2 (11723855_a_at) / Fold change /veh CASKIN2 (11723855_a_at) / RFU LOC730098 (11760151_x_at) / Fold change /veh LOC730098 (11760151_x_at) / RFU OR4N2 (11742367_at) / Fold change /veh OR4N2 (11742367_at) / RFU PRRT2 (11749266_a_at) / Fold change /veh PRRT2 (11749266_a_at) / RFU SNX32 (11753110_a_at) / Fold change /veh SNX32 (11753110_a_at) / RFU CDHR5 (11726645_a_at) / Fold change /veh CDHR5 (11726645_a_at) / RFU RCAN1 (11760418_a_at) / Fold change /veh RCAN1 (11760418_a_at) / RFU FAM167A (11723789_a_at) / Fold change /veh FAM167A (11723789_a_at) / RFU FAM26E (11764081_at) / Fold change /veh FAM26E (11764081_at) / RFU ISYNA1 (11749810_s_at) / Fold change /veh ISYNA1 (11749810_s_at) / RFU ACY1 (11761880_at) / Fold change /veh ACY1 (11761880_at) / RFU 11764098_at / Fold change /veh 11764098_at / RFU SAMD14 (11745864_x_at) / Fold change /veh SAMD14 (11745864_x_at) / RFU NPB (11741838_a_at) / Fold change /veh NPB (11741838_a_at) / RFU TMPRSS6 (11731388_a_at) / Fold change /veh TMPRSS6 (11731388_a_at) / RFU KRTAP10-2 (11738614_at) / Fold change /veh KRTAP10-2 (11738614_at) / RFU ARHGAP8 /// PRR5-ARHGAP8 (11727945_x_at) / Fold change /veh ARHGAP8 /// PRR5-ARHGAP8 (11727945_x_at) / RFU KRTAP5-7 /// NADSYN1 (11734609_at) / Fold change /veh KRTAP5-7 /// NADSYN1 (11734609_at) / RFU RASL12 (11751679_a_at) / Fold change /veh RASL12 (11751679_a_at) / RFU CDKN2B (11736163_a_at) / Fold change /veh CDKN2B (11736163_a_at) / RFU PRF1 (11729649_at) / Fold change /veh PRF1 (11729649_at) / RFU, ZNF638 /// ZNF638-IT1 / Fold change vs veh, ZNF638 /// ZNF638-IT1 / RFU, PANK3 / Fold change vs veh, PANK3 / RFU, SH3YL1 / Fold change vs veh, SH3YL1 / RFU, ZEB2 / Fold change vs veh, ZEB2 / RFU, NRIP1 / Fold change vs veh, NRIP1 / RFU, PTTG1IP / Fold change vs veh, PTTG1IP / RFU, CAPN2 / Fold change vs veh, CAPN2 / RFU, MED14 / Fold change vs veh, MED14 / RFU, SNORA58 / Fold change vs veh, SNORA58 / RFU, C1orf63 / Fold change vs veh, C1orf63 / RFU, LRRFIP1 / Fold change vs veh, LRRFIP1 / RFU, NDUFAF7 / Fold change vs veh, NDUFAF7 / RFU, SLC12A2 / Fold change vs veh, SLC12A2 / RFU, IBTK / Fold change vs veh, IBTK / RFU, ESF1 / Fold change vs veh, ESF1 / Fold change vs veh, TMEM50B / RFU, TAOK1 / Fold change vs veh, TAOK1 / RFU, ACBD3 / Fold change vs veh, ACBD3 / RFU, TMA16 / Fold change vs veh, TMA16 / RFU, RWDD3 / Fold change vs veh, RWDD3 / RFU, BCAT1 / Fold change vs veh, BCAT1 / RFU, EDEM3 / Fold change vs veh, EDEM3 / RFU, TMEM33 / Fold change vs veh, TMEM33 / RFU, WDR75 / Fold change vs veh, WDR75 / RFU, AHCTF1 / Fold change vs veh, AHCTF1 / RFU, TFRC / Fold change vs veh, TFRC / RFU, ZDHHC17 / Fold change vs veh, ZDHHC17 / RFU, NOM1 / Fold change vs veh, NOM1 / RFU, ARL8B / Fold change vs veh, ARL8B / RFU, ZBTB11 / Fold change vs veh, ZBTB11 / RFU, TAMM41 / Fold change vs veh, TAMM41 / RFU, KIAA1704 /// LOC100996395 / Fold change vs veh, KIAA1704 /// LOC100996395 / RFU, ING1 / Fold change vs veh, ING1 / RFU, TRMT61B / Fold change vs veh, TRMT61B / RFU, FUBP3 / Fold change vs veh, FUBP3 / RFU, TP53 / Fold change vs veh, TP53 / RFU, TNKS2 / Fold change vs veh, TNKS2 / RFU, ZFP14 / Fold change vs veh, ZFP14 / RFU, ACTR2 / Fold change vs veh, ACTR2 / RFU, PPP3R1 / Fold change vs veh, PPP3R1 / RFU, PIK3R1 / Fold change vs veh, PIK3R1 / RFU, HNRNPA1 / Fold change vs veh, HNRNPA1 / RFU, RNF170 / Fold change vs veh, RNF170 / RFU, ZNF28 / Fold change vs veh, ZNF28 / RFU, RNGTT / Fold change vs veh, RNGTT / RFU, OGT / Fold change vs veh, OGT / RFU, BRD1 / Fold change vs veh, BRD1 / RFU, MARS / Fold change vs veh, MARS / RFU, ZNF655 / Fold change vs veh, ZNF655 / RFU, FAHD1 / Fold change vs veh, FAHD1 / RFU, BDP1 / Fold change vs veh, BDP1 / RFU, LRRCC1 / Fold change vs veh, LRRCC1 / RFU, ARID1A / Fold change vs veh, ARID1A / RFU, ZNF146 / Fold change vs veh, ZNF146 / RFU, ZNF330 / Fold change vs veh, ZNF330 / RFU, GPN3 / Fold change vs veh, GPN3 / RFU, C9orf123 / Fold change vs veh, C9orf123 / RFU, N4BP2L2 / Fold change vs veh, N4BP2L2 / RFU, ARFIP1 / Fold change vs veh, ARFIP1 / RFU, FAM179B / Fold change vs veh, FAM179B / RFU, BCL10 / Fold change vs veh, BCL10 / RFU, UHRF1BP1L / Fold change vs veh, UHRF1BP1L / RFU, BET1 / Fold change vs veh, BET1 / RFU, CNOT2 / Fold change vs veh, CNOT2 / RFU, ZNF268 / Fold change vs veh, ZNF268 / Fold change vs veh, ZNF507 / RFU, DGCR2 / Fold change vs veh, DGCR2 / RFU, WDSUB1 / Fold change vs veh, WDSUB1 / Fold change vs veh, HSP90B1 /// MIR3652 / RFU, ADSS / Fold change vs veh, ADSS / RFU, GK / Fold change vs veh, GK / RFU, ZNF148 / Fold change vs veh, ZNF148 / RFU, TAF9 / Fold change vs veh, TAF9 / RFU, SLC1A5 / Fold change vs veh, SLC1A5 / RFU, SLMO2 / Fold change vs veh, SLMO2 / RFU, ABCC4 / Fold change vs veh, ABCC4 / RFU, LOC101060439 /// RAP1B / Fold change vs veh, LOC101060439 /// RAP1B / RFU, RFX7 / Fold change vs veh, RFX7 / RFU, GTPBP10 / Fold change vs veh, GTPBP10 / RFU, CNEP1R1 / Fold change vs veh, CNEP1R1 / RFU, BIVM-ERCC5 /// ERCC5 / Fold change vs veh, BIVM-ERCC5 /// ERCC5 / RFU, ILF3 / Fold change vs veh, ILF3 / RFU 11762660_at / Fold change /veh 11762660_at / RFU VCAN (11757783_s_at) / Fold change /veh VCAN (11757783_s_at) / RFU DDX43 (11728927_at) / Fold change /veh DDX43 (11728927_at) / RFU KRT8 (11758188_x_at) / Fold change /veh KRT8 (11758188_x_at) / RFU NKD1 (11759106_at) / Fold change /veh NKD1 (11759106_at) / RFU SRD5A1 (11742802_a_at) / Fold change /veh SRD5A1 (11742802_a_at) / RFU TPSAB1 /// TPSB2 (11721975_s_at) / Fold change /veh TPSAB1 /// TPSB2 (11721975_s_at) / RFU GSTM3 (11746129_a_at) / Fold change /veh GSTM3 (11746129_a_at) / RFU IL23R (11737362_x_at) / Fold change /veh IL23R (11737362_x_at) / RFU TMEM51 (11727254_a_at) / Fold change /veh TMEM51 (11727254_a_at) / RFU PIWIL2 (11732686_x_at) / Fold change /veh PIWIL2 (11732686_x_at) / RFU ORM1 (11744905_x_at) / Fold change /veh ORM1 (11744905_x_at) / RFU CCDC152 (11743942_at) / Fold change /veh CCDC152 (11743942_at) / RFU ECM1 (11717891_a_at) / Fold change /veh ECM1 (11717891_a_at) / RFU IL23R (11748794_a_at) / Fold change /veh IL23R (11748794_a_at) / RFU TNFAIP8L3 (11732012_x_at) / Fold change /veh TNFAIP8L3 (11732012_x_at) / RFU MBOAT4 (11741988_at) / Fold change /veh MBOAT4 (11741988_at) / RFU 11764193_at / Fold change /veh 11764193_at / RFU TMEM53 (11763286_at) / Fold change /veh TMEM53 (11763286_at) / RFU MAGEB2 (11727129_at) / Fold change /veh MAGEB2 (11727129_at) / RFU TMEM200A (11744735_a_at) / Fold change /veh TMEM200A (11744735_a_at) / RFU CCDC152 (11751479_a_at) / Fold change /veh CCDC152 (11751479_a_at) / RFU FAM211A (11726209_a_at) / Fold change /veh FAM211A (11726209_a_at) / RFU RGS16 (11746705_a_at) / Fold change /veh RGS16 (11746705_a_at) / RFU VCAN (11755009_s_at) / Fold change /veh VCAN (11755009_s_at) / RFU RHOB (11743442_s_at) / Fold change /veh RHOB (11743442_s_at) / RFU RGS16 (11720943_a_at) / Fold change /veh RGS16 (11720943_a_at) / RFU RGS16 (11720944_at) / Fold change /veh RGS16 (11720944_at) / RFU, VPS4B / Fold change vs veh, VPS4B / RFU, CREB1 / Fold change vs veh, CREB1 / RFU, DNAJC13 / Fold change vs veh, DNAJC13 / RFU, GNAQ / Fold change vs veh, GNAQ / RFU, CDK5R1 / Fold change vs veh, CDK5R1 / RFU, ZRANB3 / Fold change vs veh, ZRANB3 / RFU, CUL4A / Fold change vs veh, CUL4A / RFU, CCNY / Fold change vs veh, CCNY / RFU, UFL1 / Fold change vs veh, UFL1 / RFU, COG3 / Fold change vs veh, COG3 / RFU, DIAPH2 / Fold change vs veh, DIAPH2 / RFU, SKA2 / Fold change vs veh, SKA2 / RFU, AFF3 / Fold change vs veh, AFF3 / RFU, LMF1 / Fold change vs veh, LMF1 / RFU, IPO11 / Fold change vs veh, IPO11 / RFU, DFFB / Fold change vs veh, DFFB / RFU, FOXP1 / Fold change vs veh, FOXP1 / RFU, CARD8 / Fold change vs veh, CARD8 / RFU, STRN3 / Fold change vs veh, STRN3 / RFU, ADK / Fold change vs veh, ADK / RFU, RASSF2 / Fold change vs veh, RASSF2 / RFU, WIPF1 / Fold change vs veh, WIPF1 / RFU, LARP1B / Fold change vs veh, LARP1B / RFU, RASA1 / Fold change vs veh, RASA1 / RFU, RB1 / Fold change vs veh, RB1 / RFU, PPFIA1 / Fold change vs veh, PPFIA1 / RFU, MAT2A / Fold change vs veh, MAT2A / RFU, CCT5 / Fold change vs veh, CCT5 / RFU, WDR92 / Fold change vs veh, WDR92 / RFU, CUX1 / Fold change vs veh, CUX1 / RFU, TTC7A / Fold change vs veh, TTC7A / RFU, TMEM135 / Fold change vs veh, TMEM135 / RFU, DEPTOR / Fold change vs veh, DEPTOR / RFU, CPM / Fold change vs veh, CPM / RFU, DNAJB6 / Fold change vs veh, DNAJB6 / RFU, CACNA2D3 / Fold change vs veh, CACNA2D3 / RFU, DTX4 / Fold change vs veh, DTX4 / RFU, TFCP2 / Fold change vs veh, TFCP2 / RFU, GMCL1 /// GMCL1P1 / Fold change vs veh, GMCL1 /// GMCL1P1 / RFU, AEBP2 / Fold change vs veh, AEBP2 / RFU, SNHG1 /// SNORD22 /// SNORD25 /// SNORD26 /// SNORD27 /// SNORD28 /// SNORD29 /// SNORD31 / Fold change vs veh, SNHG1 /// SNORD22 /// SNORD25 /// SNORD26 /// SNORD27 /// SNORD28 /// SNORD29 /// SNORD31 / Fold change (Aza/veh), C12orf56 (ProbeSet 11735607_a_at) / Fold change (ACY-1035/veh), C12orf56 (ProbeSet 11735607_a_at) / Fold change (Aza/veh), FGFR1OP (ProbeSet 11751329_s_at) / Fold change (ACY-1035/veh), FGFR1OP (ProbeSet 11751329_s_at) / Fold change (Aza/veh), VPS36 (ProbeSet 11739960_a_at) / Fold change (ACY-1035/veh), VPS36 (ProbeSet 11739960_a_at) / RFU SYPL1 (11715823_x_at) / Fold change /veh SYPL1 (11715823_x_at) / RFU IGFBP7 (11715501_s_at) / Fold change /veh IGFBP7 (11715501_s_at) / RFU REEP3 (11722064_at) / Fold change /veh REEP3 (11722064_at) / RFU IGLL1 (11728026_x_at) / Fold change /veh IGLL1 (11728026_x_at): dose or concentration left out as unconfirmed", "conditions": "ProbeSet 11728314_at; LIST B"}
{"compound": "Nc1ncn([C@@H]2O[C@H](CO)[C@@H](O)[C@H]2O)c(=O)n1", "note": "[azacitidine]", "values": [{"measurement": "RFU, ZNF148", "value": 202.48, "unit": "RFU"}]}
